What was measured:
[1] = test system: DNA plasmid pcDNA 3.1 HisC (8.2 kb); test: Digestion of plasmid DNA with restriction enzyme Bam H1 after incubation with compounds (agarose gel electrophoresis); assay type: biochemical; details: compound 2 or 20 µM, overnight incubation at 37°C, then BamH1 2U/sample for 3 hours at 37°C; gel not shown
Description: The impact of compounds 1a and 1b has been tested on the digestion of DNA plasmid pcDNA 3.1 HisC (8.2 kb) with restriction enzyme Bam H1.
1. For this purpose, pcDNA 3.1 HisC plasmid DNA (0.6 µg) was dissolved in 1×BamH1 buffer and incubated overnight at 37°C with the following reference or test compounds:
The concentration of the reference and test compounds in each sample was 2 or 20 µM.
2. After overnight incubation, the reaction mixture was digested with BamH1 restriction enzyme (2U/sample) for 3 hours at 37°C. The total volume of the samples was 10 µL.
3. The reaction products were applied on 1% agarose gel and electrophoresis was performed in TAE buffer.

[2] = test system: synthetic DNA duplex (23 nt- 5'TCTTCAAGAATTCAGGTCCTGAT 3'); test: Circular dichroism (CD) spectra of DNA with test compounds; assay type: binding; details: DNA duplex 2µM, compound 20µM, 0.2% DMSO, PBS, 23°C, immediately after addition
Description: The ability of the test compounds 1a and 1b to interact with DNA was tested by the circular dichroism (CD) technique.
1. For this purpose, samples were prepared in PBS buffer containing: 2µM of synthetic DNA duplex (23 nt- 5'TCTTCAAGAATTCAGGTCCTGAT 3') or DNA of bovine thymus (0.2 mg/ml) and test compounds at a concentration of 20µM or 40µM for synthetic DNA duplex sample and thymus DNA sample, respectively. The samples contained 0.2% or 0.4% DMSO (for synthetic DNA duplex sample and thymus DNA sample, respectively), which is a solvent of the test compounds.
2. CD spectra (in the range from 200 nm to 320 nm) were recorded immediately after addition of the test compounds as well as after 1.5 h incubation. The measurement was carried out at 23°C in a quartz cuvette (optical path length 0.5 cm) using a spectroscope CD6 (Jobin-Yvon, France).
3. CD spectra of DNA incubated with the test compounds were compared with the control spectrum (spectrum was recorded for a sample of DNA (2µM or 0.2 mg/ml) in the presence of DMSO (final concentration of 0.2% or 0.4%).

| SMILES | interaction with plasmid DNA: resistance to digestion by the endonucleolytic enzyme Bam H1 [1] | change of CD spectrum of duplex DNA compared to the control (duplex DNA + DMSO) [2] |
| --- | --- | --- |
| COP(=O)(OC)/C(=C/c1ccc2ccc3cccc4ccc1c2c34)C(=O)c1ccc2c(c1)OCO2 [Compound 1a] | increasing its resistance to digestion | changes compared to the control sample |
| O=C(/C(=C/c1ccc2ccc3cccc4ccc1c2c34)P(=O)(O)O)c1ccc2c(c1)OCO2 [Compound 1b, (Z)-3-(benzo[d][1,3]dioxol-5-yl)-1-(pyrene-1-yl)-3-oxoprop-1-en-2-ylphosphonic acid] | increasing its resistance to digestion | changes compared to the control sample |
| COc1cccc2c1C(=O)c1c(O)c3c(c(O)c1C2=O)C[C@@](O)(C(C)=O)C[C@@H]3O[C@H]1C[C@H](N)[C@H](O)[C@H](C)O1 [Daunorubicin, reference compound] | increasing its resistance to digestion | changing significantly its structure |

Source: patent publication EP2787001A1, “(E)-3-Aryl-3-oxoprop-1-enyl-2-phosphonic acid and its derivatives, methods for their preparation and their use” (Centrum Badan Molekularnych I Makromolekularnych Polskiej …, priority 2013, dated 2014)
